Where two headings read alike, the source gives them in different places.
What was measured:
[1] = tested on: A/PR/8/34 influenza virus; assay: microbe, parasite or virus in culture; type: cell-based
[2] = tested on: influenza A virus (A/PR/8/34); assay: microbe, parasite or virus in culture; type: cell-based
[3] = Influenza A virus, PR/8, MDCK, mean all, A/PR/8/34 influenza virus in MDCK cells, bDNA assay, read-out: EC50
[4] = Influenza A virus, PR/8, MDCK, mean all, A/PR/8/34 infected MDCK cells, CPE assay, read-out: IC50
[5] = mean all, A/PR/8/34 influenza virus in MDCK cells, bDNA assay, read-out: EC50
[6] = mean all, A/PR/8/34 infected MDCK cells, CPE assay, read-out: IC50
[7] = Influenza A virus, PR/8, MDCK, MDCK cells infected with A/PR/8/34, replication of influenza virus (viral RNA, bDNA), class symbols, read-out: EC50 (mean all)
[8] = Influenza A virus, PR/8, MDCK, MDCK cells infected with A/PR/8/34, survival of infected cells, class symbols, read-out: IC50 (mean all)

| SMILES | EC50 [1, 3] [µM] | IC50 [2, 4] [µM] | also measured |
| --- | --- | --- | --- |
| O=S(=O)(C1CC1)N1CCC[C@H](Nc2nc(-c3c[nH]c4ncc(Cl)cc34)ncc2F)C1 [Compound 391, (S)-2-(5-chloro-1H-pyrrolo[2,3-b]pyridin-3-yl)-N-(1-(cyclopropylsulfonyl)piperidin-3-yl)-5-fluoropyrimidin-4-amine] | < 5 | < 5 |  |
| O=S(=O)(CC1CCCC1)N1CCC[C@H](Nc2nc(-c3c[nH]c4ncc(Cl)cc34)ncc2F)C1 [Compound 392, (S)-2-(5-chloro-1H-pyrrolo[2,3-b]pyridin-3-yl)-N-(1-(cyclopentylmethylsulfonyl)piperidin-3-yl)-5-fluoropyrimidin-4-amine] | < 5 | < 5 |  |
| CCS(=O)(=O)N1CCC[C@H](Nc2nc(-c3c[nH]c4ncc(Cl)cc34)ncc2F)C1 [Compound 393, (S)-2-(5-chloro-1H-pyrrolo[2,3-b]pyridin-3-yl)-N-(1-(ethylsulfonyl)piperidin-3-yl)-5-fluoropyrimidin-4-amine] | < 5 | < 5 |  |
| CC(C)S(=O)(=O)N1CCC[C@H](Nc2nc(-c3c[nH]c4ncc(Cl)cc34)ncc2F)C1 [Compound 394, (S)-2-(5-chloro-1H-pyrrolo[2,3-b]pyridin-3-yl)-5-fluoro-N-(1-(isopropylsulfonyl)-piperidin-3-yl)pyrimidin-4-amine] | < 5 | < 5 |  |
| O=C(C1CCC1)N1CCC[C@H](Nc2nc(-c3c[nH]c4ncc(Cl)cc34)ncc2F)C1 [Compound 395] | < 5 | < 5 |  |
| COCCC(=O)N1CCC[C@H](Nc2nc(-c3c[nH]c4ncc(Cl)cc34)ncc2F)C1 [Compound 396] | < 5 | < 5 |  |
| CN1CCC[C@H](Nc2nc(-c3c[nH]c4ncc(Cl)cc34)ncc2F)C1=O [Compound 397] | < 5 | < 5 |  |
| CS(=O)(=O)N1CC[C@H](Nc2nc(-c3c[nH]c4ncc(Cl)cc34)ncc2F)C1 [Compound 398, (S)-2-(5-chloro-1H-pyrrolo[2,3-b]pyridin-3-yl)-5-fluoro-N-(1-(methylsulfonyl)pyrrolidin-3-yl)pyrimidin-4-amine] | < 5 | < 5 |  |
| COC1CCCCC1Nc1nc(-c2c[nH]c3ncc(Cl)cc23)ncc1F (stereo not drawn) [Compound 412, 2-(5-chloro-1H-pyrrolo[2,3-b]pyridin-3-yl)-5-fluoro-N-(2-methoxycyclohexyl)-pyrimidin-4-amine] | < 5 | < 5 |  |
| NC1CCCCC1Nc1nc(-c2c[nH]c3ncc(Cl)cc23)ncc1F (stereo not drawn) [Compound 414] |  |  | EC50 [1, 5]: < 5 µM; IC50 [2, 6]: < 5 µM |
| O=C1NCCC[C@@H]1Nc1nc(-c2c[nH]c3ncc(Cl)cc23)ncc1F [Compound 416] | < 5 | < 5 |  |
| O=C1NCCCC[C@@H]1Nc1nc(-c2c[nH]c3ncc(Cl)cc23)ncc1F [Compound 417] | < 5 | < 5 |  |
| CCCCS(=O)(=O)N1CCCC(Nc2ccnc(-c3c[nH]c4ncc(Cl)cc34)n2)C1 (stereo not drawn) [Compound 419] |  |  | EC50 [1, 5]: < 5 µM; IC50 [2, 6]: < 5 µM |
| COC(=O)N[C@H]1CCCC[C@@H]1Nc1nc(-c2c[nH]c3ncc(Cl)cc23)ncc1F [Compound 425, Methyl N-[(1S,2S)-2-[[2-(5-chloro-1H-pyrrolo[2,3-b]pyridin-3-yl)-5-fluoro-pyrimidin-4-yl]amino]cyclohexyl]carbamate] | < 5 | < 5 |  |
| CS(=O)(=O)N[C@H]1CCCC[C@@H]1Nc1nc(-c2c[nH]c3ncc(Cl)cc23)ncc1F [Compound 428, N-[(1S,2S)-2-[[2-(5-chloro-1H-pyrrolo[2,3-b]pyridin-3-yl)-5-fluoro-pyrimidin-4-yl]amino]cyclohexyl]methanesulfonamide] | < 5 | < 5 | IC50 ([2]; Influenza A virus, PR/8, MDCK, exemplary values in text, survival of A/PR/8/34 infected cells, read-out: IC50): 0.03 µM |
| CC(=O)N[C@H]1CCCC[C@@H]1Nc1nc(-c2c[nH]c3ncc(Cl)cc23)ncc1F [Compound 433, N-[(1s, 2S)-2-[[2-(5-chloro-1H-pyrrolo[2,3-b]pyridin-3-yl)-5-fluoro-pyrimidin-4-yl]amino]cyclohexyl]acetamide] | < 5 | < 5 |  |
| CC(=O)N1CCC[C@H](Nc2nc(-c3c[nH]c4ncc(Cl)cc34)ncc2F)C1 [Compound 434] | < 5 | < 5 |  |

| SMILES | EC50 [1, 3] [µM] | IC50 [2, 4] [µM] | also measured |
| --- | --- | --- | --- |
| CCC(=O)N1CCC[C@H](Nc2nc(-c3c[nH]c4ncc(Cl)cc34)ncc2F)C1 [Compound 435] | < 5 | < 5 |  |
| CCNC(=O)N1CCC[C@H](Nc2nc(-c3c[nH]c4ncc(Cl)cc34)ncc2F)C1 [Compound 438] | < 5 | < 5 |  |
| CC(C)NC(=O)N1CCC[C@H](Nc2nc(-c3c[nH]c4ncc(Cl)cc34)ncc2F)C1 [Compound 439] | < 5 | < 5 |  |
| COC(=O)N1CCC[C@H](Nc2nc(-c3c[nH]c4ncc(Cl)cc34)ncc2F)C1 [Compound 440] | < 5 | < 5 |  |
| O=C(OC1CCOC1)N1CCC[C@H](Nc2nc(-c3c[nH]c4ncc(Cl)cc34)ncc2F)C1 (stereo partly drawn) [Compound 443] | < 5 | < 5 |  |
| CC1(C(=O)N2CCC[C@H](Nc3nc(-c4c[nH]c5ncc(Cl)cc45)ncc3F)C2)COC1 [Compound 444] | < 5 | < 5 |  |
| COC(=O)NC1CCCC(Nc2nc(-c3c[nH]c4ncc(Cl)cc34)ncc2F)C1 (stereo not drawn) [Compound 453] |  |  | EC50 [1, 5]: < 5 µM; IC50 [2, 6]: < 5 µM |
| CS(=O)(=O)NC1CCCC(Nc2nc(-c3c[nH]c4ncc(Cl)cc34)ncc2F)C1 (stereo not drawn) [Compound 454, N-[3-[[2-(5-chloro-1H-pyrrolo[2,3-b]pyridin-3-yl)-5-fluoro-pyrimidin-4-yl]amino]cyclohexyl]methanesulfonamide] | < 5 | < 5 |  |
| CCN1CCC[C@H](Nc2nc(-c3c[nH]c4ncc(Cl)cc34)ncc2F)C1=O [Compound 460] | < 5 | < 5 |  |
| CN1CCCC[C@H](Nc2nc(-c3c[nH]c4ncc(Cl)cc34)ncc2F)C1=O [Compound 461] | < 5 | < 5 |  |
| CCN1CCCC[C@H](Nc2nc(-c3c[nH]c4ncc(Cl)cc34)ncc2F)C1=O [Compound 462] | < 5 | 5 to 20 |  |
| CCCS(=O)(=O)N1CCCC(Nc2ccnc(-c3c[nH]c4ncc(Cl)cc34)n2)C1 (stereo not drawn) [Compound 464] |  |  | EC50 [1, 5]: < 5 µM; IC50 [2, 6]: < 5 µM |
| CC(=O)N1CCCC(CNc2ccnc(-c3c[nH]c4ncc(Cl)cc34)n2)C1 (stereo not drawn) [Compound 490] |  |  | EC50 ([1]; MDCK cells infected with A/PR/8/34, replication of influenza virus (viral RNA, bDNA), class symbols, read-out: EC50 (mean all)): < 5 µM; IC50 ([2]; MDCK cells infected with A/PR/8/34, survival of infected cells, class symbols, read-out: IC50 (mean all)): < 5 µM |
| COCCC(=O)N1CCC[C@H](CNc2ccnc(-c3c[nH]c4ncc(Cl)cc34)n2)C1 [Compound 493, (R)-1-(3-((2-(5-chloro-1H-pyrrolo[2,3-b]pyridin-3-yl)pyrimidin-4-ylamino)methyl)piperidin-1-yl)-3-methoxypropan-1-one] |  |  | EC50 [1, 7]: < 5 µM; IC50 [2, 8]: < 5 µM |
| CC(=O)N1CCCC(Nc2nc(-c3c[nH]c4ncc(Cl)cc34)ncc2F)CC1 (stereo not drawn) [Compound 497, 1-(4-(2-(5-chloro-1H-pyrrolo[2,3-b]pyridin-3-yl)-5-fluoropyrimidin-4-ylamino)azepan-1-yl)ethanone] |  |  | EC50 [1, 7]: < 5 µM; IC50 [2, 8]: < 5 µM |
| CN(C)C(=O)N1CCCC(Nc2nc(-c3c[nH]c4ncc(Cl)cc34)ncc2F)CC1 (stereo not drawn) [Compound 499, 4-(2-(5-chloro-1H-pyrrolo[2,3-b]pyridin-3-yl)-5-fluoropyrimidin-4-ylamino)-N,N-dimethylazepane-1-carboxamide] |  |  | EC50 [1, 7]: < 5 µM; IC50 [2, 8]: < 5 µM |
| O=C1NCCCC[C@@H]1Nc1ccnc(-c2c[nH]c3ncc(Cl)cc23)n1 [Compound 500] |  |  | EC50 [1, 7]: < 5 µM; IC50 [2, 8]: < 5 µM |

— US8829007B2 (priority 2009, dated 2014)
